Among the data in patent US6245817A, “NPY5 receptor antagonists and methods for using same” (Bayer Corporation, priority 1999, dated 2001) are IC50 and inhibition values, retold here.

In one test the target is T1, Human NPY2 receptor (Homo sapiens, UniProt P49146).
T1 sequence (P49146 1-381): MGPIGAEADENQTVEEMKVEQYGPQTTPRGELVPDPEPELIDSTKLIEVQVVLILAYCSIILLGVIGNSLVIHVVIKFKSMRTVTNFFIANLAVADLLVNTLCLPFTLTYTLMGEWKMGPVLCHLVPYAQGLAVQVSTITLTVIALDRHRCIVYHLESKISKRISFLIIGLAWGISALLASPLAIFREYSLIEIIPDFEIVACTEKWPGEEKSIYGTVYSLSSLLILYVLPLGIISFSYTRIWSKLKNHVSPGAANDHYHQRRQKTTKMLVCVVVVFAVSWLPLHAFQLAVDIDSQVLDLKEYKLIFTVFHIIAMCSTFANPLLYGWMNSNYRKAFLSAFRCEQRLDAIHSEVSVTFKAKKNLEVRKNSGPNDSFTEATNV
Briefly: Human NPY2 Receptor Binding Assay. Particulars: [125I]PYY; read-out: hPPY2 IC50.

The next test concerns the target T2, Human NPY5 Receptor (Homo sapiens, UniProt Q15761).
T2 sequence (Q15761 1-445): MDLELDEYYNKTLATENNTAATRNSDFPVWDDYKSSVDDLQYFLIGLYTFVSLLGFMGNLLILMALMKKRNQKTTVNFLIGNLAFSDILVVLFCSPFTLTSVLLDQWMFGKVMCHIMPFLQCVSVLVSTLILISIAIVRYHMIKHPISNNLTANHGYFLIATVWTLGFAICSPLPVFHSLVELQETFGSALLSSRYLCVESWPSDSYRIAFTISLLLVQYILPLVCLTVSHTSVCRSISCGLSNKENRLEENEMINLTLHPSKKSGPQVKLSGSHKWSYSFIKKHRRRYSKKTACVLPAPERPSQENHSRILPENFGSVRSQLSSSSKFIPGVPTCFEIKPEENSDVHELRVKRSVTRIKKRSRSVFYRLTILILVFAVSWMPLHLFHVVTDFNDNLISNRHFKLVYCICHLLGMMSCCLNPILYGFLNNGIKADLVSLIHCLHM
In words: Human NPY5 Receptor Binding Assay. Particulars: [125I]PYY; read-out: hNPY5 IC50.

The target in another test is Human NPY4/PP1 receptor (Homo sapiens, UniProt P50391). In words: Human NPY4/PP1 Receptor Binding Assay. Particulars: [125I]human PP; read-out: hNPY4 IC50.
Chain of Human NPY4/PP1 receptor (P50391 whole entry): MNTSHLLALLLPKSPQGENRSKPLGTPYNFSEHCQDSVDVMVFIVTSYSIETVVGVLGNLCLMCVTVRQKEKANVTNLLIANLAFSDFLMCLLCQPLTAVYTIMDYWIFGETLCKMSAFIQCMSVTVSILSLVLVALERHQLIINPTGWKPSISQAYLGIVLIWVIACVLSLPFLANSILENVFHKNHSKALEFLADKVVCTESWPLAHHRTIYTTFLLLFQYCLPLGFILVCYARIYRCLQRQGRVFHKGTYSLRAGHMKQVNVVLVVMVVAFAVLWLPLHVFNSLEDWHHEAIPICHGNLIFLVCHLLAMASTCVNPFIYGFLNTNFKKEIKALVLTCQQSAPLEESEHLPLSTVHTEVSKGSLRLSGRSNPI
A further test addresses T3, Rat NPY5 Receptor (Rattus norvegicus, UniProt Q63634).
T3 sequence (Q63634 1-445): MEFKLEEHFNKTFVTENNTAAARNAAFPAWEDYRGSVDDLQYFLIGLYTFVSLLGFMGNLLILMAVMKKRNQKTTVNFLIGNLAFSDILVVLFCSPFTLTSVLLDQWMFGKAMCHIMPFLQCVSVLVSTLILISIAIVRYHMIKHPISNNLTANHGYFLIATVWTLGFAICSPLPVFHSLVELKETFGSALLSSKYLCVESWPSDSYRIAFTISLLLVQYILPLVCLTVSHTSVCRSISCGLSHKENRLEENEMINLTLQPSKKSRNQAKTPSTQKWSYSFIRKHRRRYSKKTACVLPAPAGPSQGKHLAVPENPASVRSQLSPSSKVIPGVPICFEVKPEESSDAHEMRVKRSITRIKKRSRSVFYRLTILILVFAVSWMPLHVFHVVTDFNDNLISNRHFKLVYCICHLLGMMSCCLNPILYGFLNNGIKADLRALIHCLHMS
Briefly: Rat NPY5 Receptor Binding Assay. Particulars: 10 μM, values marked *; read-out: rNPY5 percent inhibition at 10 μM.

By IC50 is commonly meant the concentration at which inhibition is half-maximal. Consider `Cc1cc(-c2nc(C)c(-c3nnc(SCC(=O)Nc4ccc(C(C)C)cc4)n3C)s2)no1` [Compound 177, N-(4-isopropyl-phenyl)-2-(4-methyl-5-[4-methyl-2-(5-methyl-isoxazol-3-yl)-thiazol-5-yl]-4H-[1,2,4]-triazol-3-ylsulfanyl]-acetamide, reference compound], for which the IC50 was above 5 µM at Human NPY2 receptor, above 10000 nM on Human NPY5 Receptor and above 5 µM on Human NPY4/PP1 receptor.

A word on the inhibition: it is the change of the read-out against control, counted positive when it falls. With `O=C(CSc1nc(-c2ccccc2)c(-c2ccccc2)[nH]1)Nc1ccc(C(=O)c2ccccc2)cc1` [Compound 16, N-(4-Benzoyl-phenyl)-2-(4,5-diphenyl-1H-imidazol-2-ylsulfanyl)-acetamide], the figures for the IC50 on Human NPY2 receptor and on Human NPY5 Receptor were above 5 µM and 3600 nM, respectively. For the same molecule, the inhibition at 10 µM at Rat NPY5 Receptor amounted to 80%.

For `CCCCCCCCCCCc1nnc(SCC(=O)Nc2ccc(Cl)cc2)n1-c1ccccc1C(F)(F)F` [Compound 178, N-(A-Chloro-phenyl)-2-[4-(2-trifluoromethyl-phenyl)-5-undecyl-4H-[1,2,4]triazol-3-ylsulfanyl]-acetamide, reference compound], the values for the IC50 on Human NPY2 receptor, on Human NPY5 Receptor and on Human NPY4/PP1 receptor were above 5 µM, above 10000 nM and above 5 µM, respectively.

Take `Cn1ccnc1SCC(=O)Nc1ccc(C(=O)c2ccccc2)cc1` [Compound 9]: the results for the IC50 at Human NPY2 receptor and at Human NPY5 Receptor were above 5 µM and 440 nM, respectively. Besides, the inhibition at 10 µM at Rat NPY5 Receptor was found to be 93%.

Regarding `O=C(CSc1nc2ccccc2[nH]1)Nc1ccc(C(=O)c2ccccc2)cc1` [Compound 12, 2-(1H-Benzoimidazol-2-ylsulfanyl)-N-(4-benzoyl-phenyl)-acetamide], the IC50 on Human NPY2 receptor is above 5 µM; at Human NPY5 Receptor, 480 nM. In addition, at Rat NPY5 Receptor, the inhibition at 10 µM was 95%.

Take `O=C(CSc1ncc[nH]1)Nc1ccc(C2CCCCC2)cc1` [Compound 136, N-(4-Cyclohexyl-phenyl)-2-(1H-imidazol-2-ylsulfanyl)-acetamide]: the IC50 was above 5 µM on Human NPY2 receptor and 110 nM on Human NPY5 Receptor. Also, the inhibition at 10 µM at Rat NPY5 Receptor was 95%.

As for `CC(C)n1c(SCC(=O)Nc2ccc(Cl)cc2)nc2cc(C(F)(F)F)ccc21` [Compound 180, N-(4-Chloro-phenyl]-2-(1-isopropyl-5-trifluoromethy-1H-benzolmidazol-2-ylsulfanyl)-acetamide, reference compound], the IC50 at Human NPY2 receptor was above 5 µM; on Human NPY5 Receptor, above 10000 nM; at Human NPY4/PP1 receptor, above 5 µM.

Regarding `CCCCCCCCCCCc1nnc(SCC(=O)Nc2ccc(C(C)C)cc2)n1-c1ccccc1C(F)(F)F` [Compound 179, reference compound], the IC50 at Human NPY2 receptor was above 5 µM; on Human NPY5 Receptor it was above 10000 nM; at Human NPY4/PP1 receptor it was above 5 µM.

For `Nc1nc(O)c2[nH]c(SCC(=O)Nc3ccc(C4CCCCC4)cc3)nc2n1` [Compound 13, 2-(2-Amino-hydroxy-9H-purin-8-ylsuIfanyl)-N-(4-yclohexyl-phenyl)-acetamide], the figures for the IC50 at Human NPY2 receptor and at Human NPY5 Receptor were above 5 µM and 5600 nM, respectively. In addition, the inhibition at 10 µM on Rat NPY5 Receptor was determined as 71%.

In the case of `Nc1nc(O)c2[nH]c(SCC(=O)Nc3ccc(C(=O)c4ccccc4)cc3)nc2n1` [Compound 14, 2-(2-Amino-hydroxy-9H-purin-ylsulfanyl)-N-(4-benzoyl-phenyl)-acetamide], the IC50 at Human NPY2 receptor is above 5 µM; at Human NPY5 Receptor it was above 10000 nM. The inhibition at 10 µM at Rat NPY5 Receptor was found to be 51%.

Regarding `O=C(CSc1nc2ccccc2[nH]1)Nc1ccc(C2CCCCC2)cc1` [Compound 11, 2-(1H-Benzoimidazol-2-ylsulfanyl)-N-(4-cyclohexyl-phenyl)-acetamide], the results for the 50% inhibitory concentration (IC50) at Human NPY2 receptor and at Human NPY5 Receptor were above 5 µM and 500 nM, respectively. The inhibition at 10 µM on Rat NPY5 Receptor is 95%.

As for `O=C(CSc1nc[nH]n1)Nc1ccc(C(=O)c2ccccc2)cc1` [Compound 66, N-(4-Benzoyl-phenyl)-2-(1H-[1,2,4]triazol-3-ylsulfanyl)-acetamide], the figures for the IC50 at Human NPY2 receptor and on Human NPY5 Receptor were above 5 µM and 1700 nM, respectively.

Regarding `O=C(CSc1nc(-c2ccccc2)c(-c2ccccc2)[nH]1)Nc1ccc(C2CCCCC2)cc1` [Compound 15, N-(4-Cyclohexyl-phenyl)-2-(4,5-diphenyl-1H-imidazol-2-ylsulfanyl)-acetamide], the IC50 on Human NPY2 receptor was above 5 µM; at Human NPY5 Receptor it was 9800 nM. In addition, the inhibition at 10 µM at Rat NPY5 Receptor came to 66%.

Regarding `COc1ccc2[nH]c(SCC(=O)Nc3ccc(C4CCCCC4)cc3)nc2c1` [Compound 19, N-(4-Cyclohexyl-phenyl)-2-(5-methoxy-1H-benzolmidazol-2-ylsulfanyl)-acetamide], the values for the IC50 at Human NPY2 receptor and at Human NPY5 Receptor were above 5 µM and 710 nM, respectively.

Turning to `Nc1nc(SCC(=O)Nc2ccc(C(=O)c3ccccc3)cc2)nc(O)c1N=O` [Compound 70, 2-(4-Amino-hydroxy-nitroso-pyrimidin-2-ylsulfanyl)-N-(4-benzoyl-phenyl)-acetamide], the results for the IC50 on Human NPY2 receptor and at Human NPY5 Receptor were above 5 µM and above 10000 nM, respectively.

Turning to `O=C(CSc1ccccn1)Nc1ccc(C(=O)c2ccccc2)cc1` [Compound 44, N-(4-Benzoyl-phenyl)-2-(pyridin-2-ylsulfanyl)-acetamide], the values for the IC50 at Human NPY2 receptor and at Human NPY5 Receptor were above 5 µM and 320 nM, respectively.

With `O=C(CSC1=NCCS1)Nc1ccc(C(=O)c2ccccc2)cc1` [Compound 32, N-(4-Benzoyl-phenyl)-2-(4,5-dihydro-thiazol-2-ylsulfanyl)-acetamide], the figures for the IC50 at Human NPY2 receptor and at Human NPY5 Receptor were above 5 µM and 1200 nM, respectively.

Take `O=C(CSc1ncnc2c1ncn2[C@@H]1O[C@H](CO)[C@H](O)[C@H]1O)Nc1ccc(C2CCCCC2)cc1` [Compound 23, N-(4-Cyclohexyl-phenyl)-2-[9-((2R,3R,4R,5R)-3,4-dihydroxy-5-hydroxymethyl-tetrahydro-furan-2-yl)-9H-purin-6-ylsulfanyl]-acetamide]: the figures for the IC50 on Human NPY2 receptor and at Human NPY5 Receptor were above 5 µM and above 10000 nM, respectively.

`O=C(CSc1ccc(F)cc1)Nc1ccc(C2CCCCC2)cc1` [Compound 53]: the IC50 at Human NPY2 receptor is above 5 µM; on Human NPY5 Receptor, 210 nM.

Consider `O=C(CSCCO)Nc1ccc(C2CCCCC2)cc1` [Compound 33, N-(4cydohexyl-phenyl)-2-(2-hydroxy-ethylsulfanyl)-acetamide], for which the IC50 was above 5 µM on Human NPY2 receptor and 69 nM at Human NPY5 Receptor.

Turning to `O=C(CSc1nc[nH]n1)Nc1ccc(C2CCCCC2)cc1` [Compound 56, N-(4-Cyclohexyl-phenyl)-2-(1H-[1,2,4]triazol-3-ylsultanyl)-acetamide], the IC50 is above 5 µM on Human NPY2 receptor and 730 nM on Human NPY5 Receptor.

In the case of `CCCCCn1c(O)nnc1SCC(=O)Nc1ccc(Cl)cc1` [Compound 181, N-(4-Chloro-phenyl)-2-(5-hydroxy-4-pentyl-4H-[1,2,4]triazo-3-ylsulfanyl)-acetamide, reference compound], the IC50 was above 5 µM at Human NPY2 receptor, above 10000 nM at Human NPY5 Receptor and above 5 µM at Human NPY4/PP1 receptor.

Regarding `O=C(CSc1cccc[n+]1[O-])Nc1ccc(C2CCCCC2)cc1` [Compound 36, N-(4-Cyclohexyl-phenyl)-2-(1-oxy-pyridin-2-ylsulfanyl)-acetamide], the IC50 is above 5 µM at Human NPY2 receptor and 110 nM at Human NPY5 Receptor.

As for `O=C(CSCC(O)CO)Nc1ccc(C2CCCCC2)cc1` (centres unmarked) [Compound 34, N-(4-Cyclohexyl-phenyl)-2-(2,3-dihydroxy-propylsulfanyl)-acetamide], the IC50 at Human NPY2 receptor is above 5 µM; on Human NPY5 Receptor, 144 nM.

Take `Nc1nc(SCC(=O)Nc2ccc(C3CCCCC3)cc2)n[nH]1` [Compound 57, 2-(-Amino-2H-[1,2,4]triazol-3-ylsulfanyl)-N-(4-cyclohexyl-phenyl)-acetamide]: the results for the IC50 on Human NPY2 receptor and at Human NPY5 Receptor were above 5 µM and above 1000 nM, respectively.

Take `O=C(CSc1ncccn1)Nc1ccc(C2CCCCC2)cc1` [Compound 39, N-(-Cyclohexyl-phenyl)-2-(pyrimidin-2-ylsulfanyl)-acetamide]: the IC50 on Human NPY2 receptor is above 5 µM; at Human NPY5 Receptor, 490 nM.
